Measurements as given in US7618972B2, “Substituted triazole derivatives as oxytocin antagonists” (Pfizer Inc, priority 2005, dated 2009).

Molecular target: T1, oxytocin receptor (CHO-OTR/NFAT-β-Lactamase cells) (Homo sapiens, UniProt P30559)
T1 construct: expressed in transfected cells; host or cells: CHO-OTR cell line, further transfected with the NFAT-β-lactamase reporter construct
T1 sequence (P30559 1-389): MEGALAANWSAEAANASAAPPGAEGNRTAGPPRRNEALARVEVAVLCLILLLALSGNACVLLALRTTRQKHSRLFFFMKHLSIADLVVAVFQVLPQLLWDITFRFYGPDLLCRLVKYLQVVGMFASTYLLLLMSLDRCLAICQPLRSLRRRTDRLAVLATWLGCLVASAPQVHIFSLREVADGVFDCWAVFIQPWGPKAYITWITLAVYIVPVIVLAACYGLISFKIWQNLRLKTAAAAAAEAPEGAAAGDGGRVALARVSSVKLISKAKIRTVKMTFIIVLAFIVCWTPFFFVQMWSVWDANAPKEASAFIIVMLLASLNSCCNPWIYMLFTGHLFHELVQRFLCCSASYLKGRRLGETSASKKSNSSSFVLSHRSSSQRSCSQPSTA
Experiment: Oxytocin Receptor Beta-Lactamase Assay
Assay type: cell-based
Conditions: oxytocin antagonist activity, n=3
Experimental: A suitable assay for determining the oxytocin antagonist activity of a compound is detailed herein below.
Oxytocin Receptor Beta-Lactamase Assay
Cells used are CHO-OTR/NFAT-β-Lactamase. The NFAT-β-lactamase expression construct was transfected into the CHO-OTR cell line and clonal populations were isolated via fluorescence activated cell sorting (FACS). An appropriate clone was selected to develop the assay. […]
Cells grown at 80-90% confluence were harvested and counted. […]
Preparation of 1 ml of 6× Loading Buffer with Enhanced Loading Protocol (this requires scale-up according to number of plates to be screened) • 12 μl of solution A (1 mM CCF4-AM in Dry DMSO) was added to 60 μl of solution B (100 mg/ml Pluronic-F127 in DMSO+0.1% Acetic Acid) and vortexed. • The resulting solution was added to […] of solution C (24% w/w PEG400, 18% TR40 v/v in water). • 75 μl of solution D was added (200 mM probenecid in 200 mM NaOH). • 10 μl of 6× Loading Buffer was added to all wells and incubated for 1.5 hrs-2 hrs at room temperature in the dark. • The plates were read using an LJL Analyst, Excitation 405 nm, Emission 450 nm and 530 nm, gain optimal, lagtime 0.40 μs integration, 4 flashes, bottom reading.

Ki: 5.4 nM
Compound: COc1ccc(-n2c(C)nnc2-c2cnc(-c3ccc(F)cc3Cl)cn2)cn1 [Example 1, 2-(2-Chloro-4-fluoro-phenyl)-5-[4-(6-methoxy-pyridin-3-yl)-5-methyl-4H-[1,2,4]triazol-3-yl]-pyrazine]
